US20250230171A1 (MOMA Therapeutics, Inc., priority 2023, published 2025)
Read-outs that look alike come from different tables or passages of the source.

Experiments:
DLD1 BRCA2 (−/−) cells = assay: 7-day cell viability assay (CellTiter-Glo), DLD1 BRCA2 (−/−); format: cell-based, human; settings: 7-day CellTiter-Glo, n=2, read-out: Viability IC50 (uM) DLD1 BRCA2 null
Description: (§1) Cell lines DLD1 WT and DLD1 BRCA2 (−/−) (Horizon Discovery Cat No. HD PAR-008 and HD-105-007) were plated in 384-well culture plates at seeding densities of 100cells/50 ul/well and 200 cells/50 uL/well respectively. The seeding densities are pre-determined from the growth curve kinetics performed to ensure log linear phase of cell growth for these 2 cell lines. These assay plates are then placed in the incubator at 37° C., 5% CO2, relative humidity >90% for a few hours before addition of test compounds. Compounds are dispensed using the Tecan HPD300 or Echo based on the plate map in the appropriate wells of the 384-well plates. The cells are treated with nine-point dose response with 3-fold serial dilutions of test compounds starting at 10 uM top concentration. After addition of the test compounds, the plates are incubated at 37° C., 5% CO2, relative humidity >90% for 7 days. CellTiter-Glo (Promega Cat. No. G7573), ATP detection reagent is prepared according to manufacturer's specifications. Cell assay plates are removed from incubator and bring to room temperature (RT) by letting them sit at bench top for at least 15 min. Using the MultiDrop liquid handler or a multichannel pipette, 35 μL/well of CTG is added and the plates are then placed shakes for 5 seconds, RT.

DLD1 WT cells = assay: 7-day cell viability assay (CellTiter-Glo), DLD1 parental (WT); format: cell-based, human; settings: 7-day CellTiter-Glo, n=2
Description: as §1

| Compound | IC50 (DLD1 BRCA2 (−/−) cells) [µM] | IC50 (DLD1 BRCA2 (−/−) cells; Homo sapiens, DLD-1, 168 h) [µM] | IC50 (DLD1 WT cells) [µM] | IC50 (DLD1 WT cells; Homo sapiens, DLD-1, 168 h) [µM] |
| --- | --- | --- | --- | --- |
| N-(5-(2-Methoxy-6-(trifluoromethyl)nicotinoyl)-5,6-dihydro-4H-pyrrolo[3,4-d]thiazol-2-yl)-4-(6-methoxyimidazo[1,5-a]pyridin-7-yl)-6-methylnicotinamide [Example 568] | 0.001 to 0.1 |  | ≥ 10 |  |
| COc1cnc(Cl)cc1-c1cc(C)ncc1C(=O)Nc1nc2c(s1)CN(C(=O)c1cc(Cl)c(C(F)F)cn1)C2 |  | 0.001 to 0.1 |  | 5 to 10 |
| COc1cnc(Cl)cc1-c1cc(C)ncc1C(=O)Nc1nc2c(s1)CN(C(=O)c1ncc(C(F)F)nc1C)C2 (racemic) |  | 0.25 to 0.5 |  | ≥ 10 |
| COc1cnc(Cl)cc1-c1cc(C)ncc1C(=O)Nc1nc2c(s1)CN(C(=O)c1nc(C)c(C(F)F)cc1Cl)C2 |  | 0.001 to 0.1 |  | ≥ 10 |
| COc1cnc(Cl)cc1-c1cc(C)ncc1C(=O)Nc1nc2c(s1)CN(C(=O)c1ccc(C)c(Cl)n1)C2 |  | 0.001 to 0.1 |  | ≥ 10 |
| COc1cnc(Cl)cc1-c1cc(C)ncc1C(=O)Nc1nc2c(s1)CN(C(=O)c1cc(C)c(C#N)cn1)C2 [Example 611] |  | 0.001 to 0.1 |  | ≥ 10 |
| COc1cnc(Cl)cc1-c1cc(C)ncc1C(=O)Nc1nc2c(s1)CN(C(=O)c1cc(C)nc3ccnn13)C2 |  | 0.001 to 0.1 |  | ≥ 10 |

More lines, main results first:

| IC50 (DLD1 BRCA2 (−/−) cells) [µM] | IC50 (DLD1 BRCA2 (−/−) cells; Homo sapiens, DLD-1, 168 h) [µM] | Compound | IC50 (DLD1 WT cells) [µM] | IC50 (DLD1 WT cells; Homo sapiens, DLD-1, 168 h) [µM] |
| --- | --- | --- | --- | --- |
|  | 0.001 to 0.1 | COc1nc(C(F)(F)F)ccc1C(=O)N1Cc2nc(NC(=O)c3cnc(C)cc3-c3cc(Cl)nnc3OC)sc2C1 [Example 996, 4-(6-chloro-3-methoxypyridazin-4-yl)-N-(5-(2-methoxy-6-(trifluoromethyl)nicotinoyl)-5,6-dihydro-4H-pyrrolo[3,4-d]thiazol-2-yl)-6-methylnicotinamide] |  | ≥ 10 |
|  | 0.001 to 0.1 | COc1cc2c(cnn2C)cc1-c1cc(C)ncc1C(=O)Nc1nc2c(s1)CN(C(=O)c1ccc(C(F)(F)F)nc1OC)C2 [Example 1010, 4-(6-methoxy-1-methyl-1H-indazol-S-yl)-N-(5-(2-methoxy-6-(trifluoromethyl)nicotinoyl)-5,6-dihydro-4H-pyrrolo[3,4-d]thiazol-2-yl)-6-methylnicotinamide] |  | ≥ 10 |
|  | 0.001 to 0.1 | COc1cnc(Cl)cc1-c1cc(C)ncc1C(=O)Nc1nc2c(s1)CN(C(=O)c1nc(C)c(C(F)F)cc1F)C2 [Example 621] |  | ≥ 10 |
|  | 0.001 to 0.1 | Cc1cc(-c2cc(Cl)ncc2OC(F)F)c(C(=O)Nc2nc3c(s2)CN(C(=O)c2nc(C(F)F)ccc2Cl)C3)cn1 [Example 922, 2′-chloro-N-(S-(3-chloro-6-(difluoromethyl)picolinoyl)-5,6-dihydro-4H-pyrrolo[3,4-d]thiazol-2-yl)-5′-(difluoromethoxy)-6-methyl-[4,4′-bipyridine]-3-carboxamide] |  | ≥ 10 |
|  | 0.001 to 0.1 | COc1cnc(Cl)cc1-c1cc(C)ncc1C(=O)Nc1nc2c(s1)CN(C(=O)c1nc(C)c(C#N)cc1F)C2 [Example 1006, 2′-chloro-N-(5-(5-cyano-3-fluoro-6-methylpicolinoyl)-5,6-dihydro-4H-pyrrolo[3,4-d]thiazol-2-yl)-5′-methoxy-6-methyl-[4,4′-bipyridine]-3-carboxamide] |  | ≥ 10 |
|  | 0.001 to 0.1 | COc1ncc(Cl)cc1-c1cc(C)ncc1C(=O)Nc1nc2c(s1)CN(C(=O)c1nc(OC)c(C(F)(F)F)cc1C)C2 [Example 1044, 5-chloro-2-methoxy-N-(5-(6-methoxy-3-methyl-5-(trifluoromethyl)picolinoyl)-5,6-dihydro-4H-pyrrolo[3,4-d]thiazol-2-yl)-6′-methyl-[3,4′-bipyridine]-3′-carboxamide] |  | ≥ 10 |
|  | 0.001 to 0.1 | COc1cnc(Cl)cc1-c1cc(C)ncc1C(=O)Nc1nc2c(s1)CN(C(=O)c1ccc(OC(F)F)nc1OC)C2 [Example 985, 2′-chloro-N-(5-(6-(difluoromethoxy)-2-methoxynicotinoyl)-5,6-dihydro-4H-pyrrolo[3,4-d]thiazol-2-yl)-5′-methoxy-6-methyl-[4,4′-bipyridine]-3-carboxamide] |  | ≥ 10 |
|  | 0.001 to 0.1 | COc1cnc(Cl)cc1-c1cc(C)ncc1C(=O)Nc1nc2c(s1)CN(C(=O)c1nc(C(F)(F)F)c(C)cc1C)C2 [Example 1012, 2′-chloro-N-(5-(3,5-dimethyl-6-(trifluoromethyl)picolinoyl)-5,6-dihydro-4H-pyrrolo[3,4-d]thiazol-2-yl)-5′-methoxy-6-methyl-[4,4′-bipyridine]-3-carboxamide] |  | ≥ 10 |
